The values below come from EP0434750B1 (priority 1988, dated 1990).

The subject of series [1] is monkeys (Macaca fascicularis). As to the kind of experiment: Neurological examination of MPTP-treated monkeys with or without chloroquine pretreatment. Particulars: for Neurological Status: Reflexes / Neurological Status: Tone: control score 2. The series is classed as in vivo. An excerpt: Four animals are naive controls. […] TABLE 3
For series [2], the system named is monkeys (Macaca fascicularis). The series can be described thus: Dopamine and homovanillic acid levels in monkey brain samples (HPLC). It counts as in vivo. Particulars: short-term chloroquine and MPTP; monkeys S1-3.
For series [3], the system named is Tyrosine hydroxylase (TH). The series can be described thus: Tyrosine hydroxylase activity in monkey brain homogenate (tritium release method). It counts as in vivo, Macaca fascicularis. Particulars: short-term chloroquine and MPTP; monkeys S1-3.
Procedure: (§1) Thirteen male monkeys (Macaca fascicularis) 5 to 8 years old, weighing 3.5 to 4.8 kg, are studied. […] Nine receive daily (0.35 mg per kg) injections of MPTP i.v. for four days. Three animals (M1-3) who received no chloroquine are the untreated controls. Six animals are pretreated with chioroquine (4 mg per kg) intramuscularly; three (S1-3) are pretreated for 12 days, and three (L1-3) for 24 days. All six pretreated animals continue to receive chloroquine injections during MPTP administration and for 10 days following MPTP exposure.
Detection is done electrochemically on a glassy carbon electrode (Bioanalytical Systems Inc.) at an applied voltage of 0.65 V. Plasma levels of chloroquine are determined by HPLC with UV detection. Samples are deproteinated with 0.2 vol. of 25% trichloroacetic acid followed by centrifugation at 4°C for 30 minutes at 1,000 g. Supernatants are removed, lyophilized overnight and reconstituted with 80 µl of 0.1 M perchloric acid. Samples are analyzed directly using reverse-phase HPLC with a Whatman ODS-3 column (Whatman) and Pellosil C8 guard column (Alltech). The mobile phase for this system is 40% acetonitrile, 0.1 M sodium phosphate (pH 3.0) with 75 mM perchloric acid. Absorption is detected at 343 nm (Bergqvist, Y. et al., Chromat. 221, 2503 (1985)). Tyrosine hydroxylase (TH) activity is assayed by the tritium release method of Nagatsu, T. et al., Analyt. […] Supernatant fluid (50 µl) from brain homogenate (1 g tissue in 20 vol 50 mM Tris, H 7.4) are added to 7 ml glass scintillation vials containing 5 µl 6 DL-6-methyl-5,6,7,8-tetrahydropterine (2.8 mg ml^-1), 5 µl FeSO4 (2.78 mg ml ^-1) and 1 µC of ring labelled [^3H]tyrosine. Mixtures are incubated 30 minutes at 37°C and the reaction terminated by adding 50 µl 3 M Na2CO3, pH 11.6. Toluene/isoamyl alcohol scintillant (5 ml) is then added directly to the vial and the contents mixed for 10 seconds. The aqueous and organic phases are allowed to separate and the ^3H2O extracted into the organic phase determined.
The conditions of series [4]: cynomolgus monkey, in vivo.
Procedure: as §1
Detection is done electrochemically on a glassy carbon electrode (Bioanalytical Systems Inc.) at an applied voltage of 0.65 V. Plasma levels of chloroquine are determined by HPLC with UV detection. Samples are deproteinated with 0.2 vol. of 25% trichloroacetic acid followed by centrifugation at 4°C for 30 minutes at 1,000 g. Supernatants are removed, lyophilized overnight and reconstituted with 80 µl of 0.1 M perchloric acid. Samples are analyzed directly using reverse-phase HPLC with a Whatman ODS-3 column (Whatman) and Pellosil C8 guard column (Alltech). […] Absorption is detected at 343 nm (Bergqvist, Y. et al., Chromat. 221, 2503 (1985)). […] The aqueous and organic phases are allowed to separate and the ^3H2O extracted into the organic phase determined.
The test system of series [5] is crude striatal synaptosomal suspensions. The series can be described thus: In vitro accumulation of [3H]DA by crude striatal synaptosomal suspensions. It counts as biochemical, mice. Particulars: striatal synaptosomes of control mice; read-out: Km(µm) of [^3H]DA uptake. On the procedure: All other studies are performed in C57 black mice.
The in vitro accumulation of [^3H]DA by crude striatal synaptosomal suspensions is measured using the method of Snyder, S.H. et al., J.Pharmacol.Exp.Ther. 165, 78 (1968) with minor modifications. Briefly, crude synaptosomal suspensions are prepared by homogenizing striatal tissue in 50 vols. (w/v) of ice-cold 0.32 M sucrose, then centrifuging the homogenate for 10 minutes at 1,000 x g. […] After vortexing, tubes (except temperature blanks) are incubated in a waterbath at 37°C for five minutes, then returned to ice. Synaptosomes are harvested by filtration. Filters are rinsed twice with 5 ml aliquots of physiological saline. Radioactivity in the filters is quantified by liquid scintillation spectroscopy. Assays are performed in sextuplicate at each DA concentration, with half of the samples serving as blanks. Active uptake is defined as the difference between [^3H]DA (PM/mg tissue/5 min.) incubation at 37°C after correction for uptake at 0-4°C.

The test system of another series is C57 black mice. The series can be described thus: Silver degeneration study of striatal nerve terminals (Fink-Heimer). It counts as in vivo. Particulars: pretreated with 25 mg/kg of pargyline, then MPTP 20 mg/kg/h x 4. On the procedure: Nerve terminal degeneration studies are performed using the method of Fink, R.P. et al., Brain Research 4, 369 (1967) (Procedure 1). This method makes possible selective silver impregnation of degenerating nerve fibers and terminals. Mice for these studies are killed under sodium pentobarbital anesthesia (40 mg/kg) by transcardial perfusion with 10% formal saline. The brain is immediately removed and stored in perfusion fluid at 0-4°C for at least one week before being sectioned on a freezing microtomee. 30 µm coronal sections are collected in 5% formal saline, then stained with silver according to Fink et al., supra.
Some fine granular degeneration is also found in the nucleus accumbens and olfactory tubercle, but in these regions it was much less dense. No such degeneration is found in identically treated sections of control mice, or in other brain regions visible in coronal brain sections at the level of the striatum.

Where [6] appears, read: long-term chloroquine (24 days) plus MPTP, monkeys L1-3.
Setting [7] is: short-term chloroquine (12 days) plus MPTP, monkeys S1-3.

“And” between values parts separate entries of the source, which are not always exact repeats. Equal values may be shown once.

As for `CCN(CC)CCCC(C)Nc1ccnc2cc(Cl)ccc12` (stereo not shown) [Chloroquine], the “protection from MPTP-induced parkinsonian clinical symptoms” value in series [1] (chloroquine 4 mg per kg i.m. pretreatment, 12 or 24 days) was “Five of the six monkeys”. In series [1] (setting [6]), the “Neurological Status: Reflexes” value is 1 and 2; the “Neurological Status: Tone” value is 1.5 and 1 and 2. Besides, the “Neurological Status: Spontaneous Movement” value in series [1] (short-term chloroquine 4 mg per kg i.m., pretreated 12 days, plus MPTP, monkeys S1-3, control score 10) was 3. Moreover, the “Neurological Status: Total (x 5.26)” value in series [1] (short-term chloroquine (12 days) plus MPTP, monkeys S1-3, control 100) is 47 and 58 and 42. In series [1] (setting [7]), the “Neurological Status: Reflexes” value is 1 and 2; the “Neurological Status: Tone” value was 2 and 1. Also, the “Neurological Status: Tremor” value in series [1] (short-term chloroquine (12 days) plus MPTP, monkeys S1-3, control score 5) was 3 and 4. Moreover, in series [2], the “CAUDATE HVA” value is 8.0 nmol per g tissue and 10.5 nmol per g tissue and 9.2 nmol per g tissue; the “PUTAMEN HVA” value is 10.1 nmol per g tissue and 8.6 nmol per g tissue and 9.8 nmol per g tissue. Besides, in series [3], the “CAUDATE TH (% control)” value was 14.0 % control and 18.7 % control and 22.6 % control; the “PUTAMEN TH (% control)” value is 20.0 % control and 23.3 % control and 29.8 % control. In addition, the “Chloroquine level relative to that in other monkeys monitored” value in series [4] was “* Chloroquine level is 36% of that in other monkeys monitored”. Besides, in series [4] (im, 4 mg/kg), the Chloroquine in plasma was 300 ng ml^-.
The Km is the concentration of substrate that gives half-maximal velocity. As for `NCCc1ccc(O)c(O)c1` [[^3H]DA, dopamine], the Km in series [5] amounted to 0.14 ± 0.02 µM.
Consider `C#CCN(C)Cc1ccccc1` [pargyline], for which, in the series on C57 black mice, the “evidence of striatal terminal degeneration” value was “None of three mice”.
